Measured values published in patent US6989383B1, “Method of treating cancer” (Sloan-Kettering Institute For Cancer Research, priority 1998, dated 2006).

Tests used:
MCF-7 cells [1] = test: In vitro cell cycle assay (DNA content by flow cytometry); assay type: cell-based, human; details: 24 hour treatment with various concentrations of paclitaxel in presence or absence of 1 μM Compound A
Description: FIGS. 4 and 4A-4L: Effect of a Farnesyl-protein Transferase Inhibitor in combination with paclitaxel on the cell cycle of MCF-7 Cells: MCF-7 cells were preincubated for one day, followed by a 24 hour treatment with various concentrations of paclitaxel in the presence or absence of 1 μM Compound A. The DNA contents of the cells were then assessed according to the protocol described in “In vitro cell cycle assay.” The cell population having various DNA quantities was then determined and analyzed graphically. […] FIGS. 4A-4L show the individual histograms in greater detail. FIGS. 4A-4F show the histograms of the treatment in the absence of Compound A and with increasing concentrations of paclitaxel (the left column of FIG. 4). FIGS. 4G-4L show the histograms of the treatment in the presence of 1 μM of Compound A and with increasing concentrations of paclitaxel (the right column of FIG. 4).
Cancer cells (MCF-7, MDA468 or DU-145) are seeded in a 10 cm dish at 1,000,000 cells per dish. After one day in growth media, the cells are exposed to various concentrations of a antineoplastic agent along with vehicle (PBS) or 1 μM FTI in the vehicle. After 24 hours of exposure to the combination or antineoplastic agent, the cells are trypsinized and stained with ethidium bromide. The stained nucleii are analyzed by flow cytometry for evaluation of the DNA content.

MCF-7 cells [2] = test: Mitotic index by bis-benzimide staining and fluorescence microscopy; assay type: cell-based, human; details: paclitaxel/Compound A treatments, manual counting of 1000 cells per group
Description: FIG. 5: Specific Effect of a Farnesyl-protein Transferase Inhibitor in combination with pactitaxel on the cell cycle of MCF-7 Cells: The cells which contained the doubled DNA content from the assay described above for FIGS. 4 and 4A-4L were analyzed to determine which particular cell cycle phase was affected by the addition of Compound A to the paclitaxel treatment. Thus, aliquots of the cell populations for the various paclitaxel/Compound A treatments were. fixed in 3% paraformaldehyde for 10 minutes, washed in PBS and stained in 24 μg/ml bis-benzimide in PBS. Mitotic cells were distinguished from interphase cells under fluorescence microscopy by characteristic chromatin condensation and mitotic indices were obtained by manual counting of 1000 cells in each experimental treatment group.

[3] = TFA salt

CCC(C)[C@@H](CO[C@@H](Cc1ccccc1)C(=O)N[C@@H](CCS(C)(=O)=O)C(=O)OC(C)C)NC[C@@H](N)CS (stereo partly drawn) [Compound A, 2(S)-[2(S)-[2(R)-Amino-3-mercapto]-propylamino-3(S)-methyl)-pentyloxy-3-phenylpropionyl-methionine sulfone isopropyl ester]
effect on paclitaxel-induced G2/M phase arrest (MCF-7 cells [1]): increases the molar potency with which paclitaxel causes G2/M phase arrest | cell cycle phase affected by addition of Compound A to paclitaxel treatment (mitotic indices) (MCF-7 cells [2]): enhancement in blockage at the G2/M phase of the cell cycle is largely due to an effect on the M-phase

CC[C@H](C)[C@@H](CO[C@@H](Cc1ccccc1)C(=O)NC1CCOC1=O)NC[C@@H](N)CS (stereo partly drawn) [Compound 5-1, 2(S)-[2(S)-[2(R)-Amino-3-mercapto]-propylamino-3(S)-methyl]pentyloxy-3-phenylpropionyl-homoserine lactone]
stability in solution exposed to air [3]: prone to disulphide formation if left in solution and exposed to air
